Test: Tissue penetration of topically applied peptide by immunohistochemistry (anti-ShK mAb P3B3) in rat pinna
Type: in vivo
Settings: 10 doses, rat pinna sections 48 hours post-challenge (DTH study)
Description: This example describes the method of detection of toxin-based therapeutic peptides of the disclosure, such as ShK-186 (SEQ ID NO:217) or ShK-198 (SEQ ID NO:210) penetration after topical administration.
Materials: All Bond reagents such Bond HIER 1 (Citrate), Bond HIER 2 (EDTA), Bond Primary antibody diluent, Bond dewax solution, Bond Wash solution, Bond Polymer Refine (DAB) detection rack including peroxide block, polymer/hematoxylin, Bond Alcohol and the Leica Bond Automated Immunostainer were purchased from Leica-microsystems.
ShK specific antibody: Hybridoma fusions were performed using the isolated splenocytes from ShK-186 immunized mice and clones producing specific monoclonal antibodies against ShK-186 and ShK-198 were isolated. These cultures were subjected to a second cloning process using the limited dilution method and selected for stable expression of the specific mAb. Stable clones were expanded, tested for antibody specificity to ShK-186 (and ShK parent) by ELISA, and their isotypes were identified using the Roche Isostrips and confirmed by ELISA. For ELISA testing, culture supernatants were diluted from 1:4-1:256 and the titer was determined to be the last dilution 2 standard deviations above background. Clone P3B3-G11-C12 is purified from hybridoma extinction cultures and concentrated to 1 mg/ml. […]

## (L-PhosphoTyr)-AEEAc-RSCIDTIPKSRCTAFQCKHSMKYRLSFCRKTCGTC-amide [ShK-186]
1% solution of ShK-186, topical
  Tissue penetration of the peptide into rat pinna (dark staining with ShK specific monoclonal antibody P3B3): perfuse and extensive penetration

## (L-Tyr)-AEEAc-RSCIDTIPKSRCTAFQCKHSMKYRLSFCRKTCGTC-amide [ShK-198]
5% solution of ShK-198, topical
  Tissue penetration of the peptide into rat pinna (dark staining with ShK specific monoclonal antibody P3B3): perfuse and extensive penetration

From patent publication US20180264080A1, “TOPICAL APPLICATIONS OF Kv1.3 CHANNEL BLOCKING PEPTIDES TO TREAT SKIN INFLAMMATION” (KINETA ONE, LLC, priority 2015, published 2018)
